Test results reported in ChEMBL document CHEMBL3046530, “Novel potential nonsedating H1 antagonists related to the gauche rotamer of PROS-NH-histamine” (Med Chem Res, 2009).

Legend:
Format in all cases: tissue-based
[1] = molecular target: Histamine H1 receptor (Cavia porcellus) (UniProt P31389); assay: Inhibition of H1 receptor in Cavia porcellus Hartley (guinea pig) ileum assessed as inhibition of histamine-induced spasms incubated at 10 '-3 M 2 min prior histamine-challenge
[2] = molecular target: Histamine H1 receptor (Cavia porcellus) (UniProt P31389); assay: Inhibition of H1 receptor in Cavia porcellus Hartley (guinea pig) ileum assessed as inhibition of histamine-induced spasms incubated 2 min prior histamine-challenge relative to acrivastine
[3] = molecular target: Histamine H1 receptor (Cavia porcellus) (UniProt P31389); assay: Inhibition of H1 receptor in Cavia porcellus Hartley (guinea pig) ileum assessed as inhibition of histamine-induced spasms incubated at 10 '-6 M 2 min prior histamine-challenge
[4] = molecular target: Histamine H1 receptor (Cavia porcellus) (UniProt P31389); assay: Inhibition of H1 receptor in Cavia porcellus Hartley (guinea pig) ileum assessed as inhibition of histamine-induced spasms incubated at 10 '-4 M 2 min prior histamine-challenge
[5] = molecular target: Histamine H1 receptor (Cavia porcellus) (UniProt P31389); assay: Inhibition of H1 receptor in Cavia porcellus Hartley (guinea pig) ileum assessed as inhibition of histamine-induced spasms incubated at 10 '-5 M 2 min prior histamine-challenge
[6] = molecular target: Histamine H1 receptor (Cavia porcellus) (UniProt P31389); assay: Inhibition of H1 receptor in Cavia porcellus Hartley (guinea pig) ileum assessed as inhibition of histamine-induced spasms incubated at 10 '-2 M 2 min prior histamine-challenge
[7] = molecular target: Histamine H1 receptor (Cavia porcellus, UniProt P31389); assay: Inhibition of H1 receptor in Cavia porcellus Hartley (guinea pig) ileum assessed as inhibition of histamine-induced spasms incubated 2 min prior histamine-challenge
Sequence of Histamine H1 receptor (P31389 whole entry): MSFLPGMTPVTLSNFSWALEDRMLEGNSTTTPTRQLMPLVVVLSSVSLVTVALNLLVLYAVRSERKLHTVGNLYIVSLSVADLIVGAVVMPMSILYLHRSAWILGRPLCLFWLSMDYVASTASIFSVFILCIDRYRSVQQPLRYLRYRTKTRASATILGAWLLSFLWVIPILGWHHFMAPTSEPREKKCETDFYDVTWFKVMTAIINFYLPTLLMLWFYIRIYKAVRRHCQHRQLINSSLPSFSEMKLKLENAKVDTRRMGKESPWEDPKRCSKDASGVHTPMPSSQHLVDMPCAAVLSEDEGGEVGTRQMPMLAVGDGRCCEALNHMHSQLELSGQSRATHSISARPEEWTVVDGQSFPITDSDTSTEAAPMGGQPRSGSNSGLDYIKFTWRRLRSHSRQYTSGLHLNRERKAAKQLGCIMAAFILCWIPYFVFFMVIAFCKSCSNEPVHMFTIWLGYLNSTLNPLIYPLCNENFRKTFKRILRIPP

Sequence of Histamine H1 receptor (Cavia porcellus) (P31389 whole entry): as above

CC(C)(CO)NCC(C)(C)N1C(=O)c2ccccc2C1=O
inhibition [1]: 62.9%
Emax [2]: 20%
inhibition [3]: 0%
inhibition [4]: 20%
inhibition [5]: 0%
inhibition [6]: 100%

Cc1ccc(/C(=C\CN2CCCC2)c2cccc(/C=C/C(=O)O)n2)cc1 [ACRIVASTINE]
inhibition [1]: 100%
Emax [2]: 100%
inhibition [3]: 16.6%
inhibition [4]: 100%
inhibition [5]: 60%
inhibition [6]: 100%
IC50 [7]: 6.12 µM

O=C1c2ccccc2C(=O)N1CC(O)CNC1CCCCC1 (racemic)
inhibition [1]: 66%
Emax [2]: 37.5%
inhibition [3]: 12.9%
inhibition [4]: 37.5%
inhibition [5]: 33.3%
inhibition [6]: 78.3%

OCCN(Cc1nc2ccccc2[nH]1)c1nc2ccccc2[nH]1
inhibition [1]: 60%
Emax [2]: 11%
inhibition [3]: 0%
inhibition [4]: 11%
inhibition [5]: 10.5%
inhibition [6]: 65.5%

O=C1NC(=O)C(=CN2CCOCC2)C(=O)N1
inhibition [1]: 100%
Emax [2]: 100%
inhibition [3]: 12.8%
inhibition [4]: 100%
inhibition [5]: 57.3%
inhibition [6]: 100%
IC50 [7]: 86.8 µM

CC(CO)(CO)Nc1nc2ccccc2[nH]1
inhibition [1]: 69%
Emax [2]: 55%
inhibition [3]: 7.16%
inhibition [4]: 55%
inhibition [5]: 29.6%
inhibition [6]: 100%
IC50 [7]: 28.9 µM

O=C1NC(=O)C(=CNC2CCCCC2)C(=O)N1
inhibition [1]: 100%
Emax [2]: 100%
inhibition [3]: 20%
inhibition [4]: 100%
inhibition [5]: 55.3%
inhibition [6]: 100%
IC50 [7]: 7 µM

CC(CO)(CO)NCCCN1C(=O)c2ccccc2C1=O
inhibition [1]: 69.2%
Emax [2]: 54%
inhibition [3]: 5.45%
inhibition [4]: 54%
inhibition [5]: 28.4%
inhibition [6]: 100%
IC50 [7]: 80.2 µM

CC(C)(CO)N1C(=O)c2ccccc2C1=O
inhibition [1]: 0%
Emax [2]: 0%
inhibition [3]: 0%
inhibition [4]: 0%
inhibition [5]: 0%
inhibition [6]: 0%

CCOC(=O)N1CCN(C=C2C(=O)NC(=O)NC2=O)CC1
inhibition [1]: 25%
Emax [2]: 25%
inhibition [3]: 8%
inhibition [4]: 25%
inhibition [5]: 9%
inhibition [6]: 25%

CC(CO)(CO)NCc1nc2ccccc2[nH]1
inhibition [1]: 50%
Emax [2]: 14.2%
inhibition [3]: 0%
inhibition [4]: 14.2%
inhibition [5]: 11.2%
inhibition [6]: 85.7%

CC(C)(CO)NC=C1C(=O)NC(=O)NC1=O
inhibition [1]: 85.5%
Emax [2]: 65%
inhibition [3]: 16.7%
inhibition [4]: 65%
inhibition [5]: 40%
inhibition [6]: 100%
IC50 [7]: 6.15 µM

CC(C)CNCC(C)(C)N1C(=O)c2ccccc2C1=O
inhibition [1]: 20%
Emax [2]: 18%
inhibition [3]: 14%
inhibition [4]: 18%
inhibition [5]: 16%
inhibition [6]: 22%
